Source: publication PMC8509773, “3-Pyridinylidene Derivatives of Chemically Modified Lupane and Ursane Triterpenes as Promising Anticancer Agents by Targeting Apoptosis” (International Journal of Molecular Sciences, 2021)

Experiments:
786-0 = test: NCI-60 SRB screening (one-dose and five-dose); assay type: cell-based, human; conditions: 48 h; for Growth Percent: 786-0, 10 μM
Summary of the method: (§1)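 After a 48-h incubation with compound, cellular protein was stained with SRB and growth estimated by spectrophotometry relative to untreated controls.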

A549/ATCC = test: NCI-60 SRB screening (one-dose and five-dose); assay type: cell-based, human; conditions: 48 h; for Growth Percent: 10 μM
Summary of the method: as §1

ACHN = test: NCI-60 SRB screening (one-dose and five-dose); assay type: cell-based, human; conditions: 48 h; for Growth Percent: 10 μM
Summary of the method: as §1

HCT-116 = test: NCI-60 SRB screening (one-dose and five-dose); assay type: cell-based, human; conditions: 48 h; for Growth Percent: HCT-116, 10 μM
Summary of the method: as §1

HS 578T = test: NCI-60 SRB screening (one-dose and five-dose); assay type: cell-based, human; conditions: 48 h; for Growth Percent: 10 μM
Summary of the method: (§2)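 Growth inhibition is scored with sulforhodamine B after 48 h of continuous compound exposure. An MG_MID averages each parameter over the whole cell panel, insensitive lines being counted at the top tested concentration.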

IGROV1 = test: NCI-60 SRB screening (one-dose and five-dose); assay type: cell-based, human; conditions: 48 h; for Growth Percent: IGROV1, 10 μM
Summary of the method: as §2

KM-12 = test: NCI-60 SRB screening (one-dose and five-dose); assay type: cell-based, human; conditions: 48 h; for Growth Percent: KM-12, 10 μM
Summary of the method: as §1

MALME-3M = test: NCI-60 SRB screening (one-dose and five-dose); assay type: cell-based, human; conditions: 48 h; for Growth Percent: 10 μM
Summary of the method: as §1

MCF7 = test: NCI-60 SRB screening (one-dose and five-dose); assay type: cell-based, human; conditions: 48 h; for Growth Percent: MCF7, 10 μM
Summary of the method: as §1

MDA-MB-231/ATCC = test: NCI-60 SRB screening (one-dose and five-dose); assay type: cell-based, human; conditions: 48 h; for Growth Percent: 10 μM
Summary of the method: as §1

NCI-H522 = test: NCI-60 SRB screening (one-dose and five-dose); assay type: cell-based, human; conditions: 48 h; for Growth Percent: NCI-H522, 10 μM
Summary of the method: (§3)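 Cells received compound at one concentration for 48 h. Growth was read by sulforhodamine B protein staining, as percentage versus untreated controls. Mean graph midpoints averaged each parameter over all cell lines, with insensitive lines entered at the highest tested concentration.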

NCI/ADR-RES = test: NCI-60 SRB screening (one-dose and five-dose); assay type: cell-based, human; conditions: 48 h; for Growth Percent: 10 μM
Summary of the method: as §1

OVCAR-4 = test: NCI-60 SRB screening (one-dose and five-dose); assay type: cell-based, human; conditions: 48 h; for Growth Percent: OVCAR-4, 10 μM
Summary of the method: as §2

PC-3 = test: NCI-60 SRB screening (one-dose and five-dose); assay type: cell-based, human; conditions: 48 h; for Growth Percent: PC-3, 10 μM
Summary of the method: as §1

SF-539 = test: NCI-60 SRB screening (one-dose and five-dose); assay type: cell-based, human; conditions: 48 h; for Growth Percent: SF-539, 10 μM
Summary of the method: as §1

SN12C = test: NCI-60 SRB screening (one-dose and five-dose); assay type: cell-based, human; conditions: 48 h; for Growth Percent: 10 μM
Summary of the method: as §3

SW-620 = test: NCI-60 SRB screening (one-dose and five-dose); assay type: cell-based, human; conditions: 48 h; for Growth Percent: SW-620, 10 μM
Summary of the method: as §1

T-47D = test: NCI-60 SRB screening (one-dose and five-dose); assay type: cell-based, human; conditions: 48 h; for Growth Percent: T-47D, 10 μM
Summary of the method: as §2

U251 = test: NCI-60 SRB screening (one-dose and five-dose); assay type: cell-based, human; conditions: 48 h; for Growth Percent: U251, 10 μM
Summary of the method: as §3

UACC-257 = test: NCI-60 SRB screening (one-dose and five-dose); assay type: cell-based, human; conditions: 48 h; for Growth Percent: UACC-257, 10 μM
Summary of the method: as §1

UACC-62 = test: NCI-60 SRB screening (one-dose and five-dose); assay type: cell-based, human; conditions: 48 h; for Growth Percent: UACC-62, 10 μM
Summary of the method: as §1

[1] = test system: NCI-60 cancer cell line panel; test: NCI-60 cancer cell line panel screening (whole panel / subpanels); assay type: cell-based; conditions: single dose 10 µM
Procedure: At first, compounds were tested in a single high dose concentration regimen (10 µM) against a panel of sixty various cancer cell lines; the results of the screening are outlined in Table 1 in the form of percent growth (GP %) of treated cells versus untreated cells used as control, where negative numbers indicate cell kill. The experimental results of growth inhibition may range from 0 to 100 and indicate a cytostatic effect while negative values indicate cell death and thus a cytotoxic activity (for NCI data see Supplementary Material Figures S6–S12).
The selectivity index (SI) was calculated by dividing the full panel MG_MID60 (μM) of tested compounds by their individual subpanel MG_MID of the cell line (μM); it correlates directly to the selectivity of their anticancer activity (Table 3). […] By contrast, despite its strong antiproliferative effect, compound 7 acts with low selectivity against the various human tumor cell lines, the highest SI value being 1.73.
Compounds 1, 2, and 4–8 were tested at one dose assay (10^−5 M) toward a panel of approximately sixty cancer cell lines representing different cancer types: leukemia, melanoma, lung, colon, CNS, ovarian, renal, prostate, and breast cancers. Primary anticancer assays were performed according to the NCI protocol as described elsewhere (see, e.g., http://dtp.nci.nih.gov accessed on 16 October 2019). The compounds were added at a single concentration and the cell cultures were incubated for 48 h. The end point determinations were made with a protein binding dye, sulforhodamine B (SRB). The results for each compound are reported as the percent growth (GP %) of treated cells compared to untreated control cells (negative numbers indicate cell kill). Compounds with considerable activity against all tested human tumor cell lines (6 and 7) were selected for the advanced assay against a panel of approximately sixty tumor cell lines at 10-fold dilutions of five concentrations (100 µM, 10 µM, 1 µM, 0.1 µM, and 0.01 µM). The percentage of growth was evaluated spectrophotometrically versus controls not treated with test agents after 48-h exposure and using SRB protein assay to estimate cell viability or growth. Three antitumor activity dose–response parameters were calculated for each cell line: GI50—molar concentration of the compound that inhibits 50% net cell growth; TGI—molar concentration of the compound leading to the total inhibition; and LC50—molar concentration of the compound leading to 50% net cell death (presented in negative logarithm). Furthermore, mean graph midpoints (MG_MID) were calculated for each of the parameters, giving an average activity parameter over all cell lines for the tested compound. For the MG_MID calculation, insensitive cell lines were included with the highest concentration tested.

[2] = Homo sapiens, five dose 0.01–100 μM

COc1cccc2c1C(=O)c1c(O)c3c(c(O)c1C2=O)C[C@@](O)(C(=O)CO)C[C@@H]3O[C@H]1C[C@H](N)[C@H](O)[C@H](C)O1 [Doxorubicin, reference compound]
GI50 (786-0; Homo sapiens, 786-0, five dose 0.01–100 μM): 130 nM | GI50 (A549/ATCC; [2]): 60 nM | GI50 (ACHN; [2]): 80 nM | GI50 (HCT-116; Homo sapiens, HCT-116, five dose 0.01–100 μM): 80 nM | GI50 (HS 578T; [2]): 330 nM | GI50 (IGROV1; Homo sapiens, IGROV-1, IGROV1, five dose 0.01–100 μM): 170 nM | GI50 (KM-12; Homo sapiens, KM12, KM-12, five dose 0.01–100 μM): 270 nM | GI50 (MALME-3M; [2]): 120 nM | GI50 (MCF7; Homo sapiens, MCF7, five dose 0.01–100 μM): 30 nM | GI50 (MDA-MB-231/ATCC; [2]): 510 nM | GI50 (NCI-H522; Homo sapiens, NCI-H522, five dose 0.01–100 μM): 30 nM | GI50 (NCI/ADR-RES; [2]): 7160 nM | GI50 (OVCAR-4; Homo sapiens, OVCAR-4, five dose 0.01–100 μM): 370 nM | GI50 (PC-3; Homo sapiens, PC-3, five dose 0.01–100 μM): 320 nM | GI50 (SF-539; Homo sapiens, SF-539, five dose 0.01–100 μM): 120 nM | GI50 (SN12C; [2]): 70 nM | GI50 (SW-620; Homo sapiens, SW-620, five dose 0.01–100 μM): 90 nM | GI50 (T-47D; Homo sapiens, T47D, T -47D, five dose 0.01–100 μM): 60 nM | GI50 (U251; Homo sapiens, U-251, U251, five dose 0.01–100 μM): 40 nM | GI50 (UACC-257; Homo sapiens, UACC-257, five dose 0.01–100 μM): 140 nM | GI50 (UACC-62; Homo sapiens, UACC-62, five dose 0.01–100 μM): 120 nM

CC(=O)O[C@H]1CC[C@]2(C)[C@H]3CC[C@@H]4[C@H]5[C@H](C)[C@@]6(C)OC[C@]5(CC[C@@]4(C)[C@]3(C)CC[C@H]2C1(C)C)CC6C(C)=O (stereo partly shown) [Compound 1]
Growth Percent (786-0): 97.17% | Growth Percent (A549/ATCC): 88.63% | Growth Percent (ACHN): 86.11% | Growth Percent (HCT-116): 41.92% | Growth Percent (HS 578T): 98.58% | Growth Percent (IGROV1): 51.77% | Growth Percent (KM-12): 78.19% | Growth Percent (MALME-3M): 81.27% | Growth Percent (MCF7): 56.74% | Growth Percent (MDA-MB-231/ATCC): 88.35% | Growth Percent (NCI-H522): 75.59% | Growth Percent (NCI/ADR-RES): 96.25% | Growth Percent (OVCAR-4): 75.77% | Growth Percent (PC-3): 48.79% | Growth Percent (SF-539): 82.82% | Growth Percent (SN12C): 88.79% | Growth Percent (SW-620): 68.02% | Growth Percent (T-47D): 74.66% | Growth Percent (U251): 77.27% | Growth Percent (UACC-257): 84.73% | Growth Percent (UACC-62): 49.11% | Antiproliferative / cytotoxic activity in words [1]: completely lacks activity

C[C@H]1[C@@H]2[C@H]3CC[C@@H]4[C@@]5(C)CC[C@H](O)C(C)(C)[C@@H]5CC[C@@]4(C)[C@]3(C)CC[C@]23CO[C@@]1(C)C(C(=O)/C=C/c1cccnc1)C3 (stereo partly shown) [Compound 4]
Growth Percent (786-0): 63.59% | Growth Percent (A549/ATCC): 57.76% | Growth Percent (ACHN): 41.58% | Growth Percent (HCT-116): 14.40% | Growth Percent (HS 578T): 81.98% | Growth Percent (IGROV1): 80.59% | Growth Percent (KM-12): 54.39% | Growth Percent (MALME-3M): 54.41% | Growth Percent (MCF7): 23.65% | Growth Percent (MDA-MB-231/ATCC): 82.10% | Growth Percent (NCI-H522): 37.96% | Growth Percent (NCI/ADR-RES): 78.87% | Growth Percent (OVCAR-4): 49.03% | Growth Percent (PC-3): 21.26% | Growth Percent (SF-539): 77.76% | Growth Percent (SN12C): 62.68% | Growth Percent (SW-620): 32.25% | Growth Percent (T-47D): 30.20% | Growth Percent (U251): 58.63% | Growth Percent (UACC-257): 49.29% | Growth Percent (UACC-62): 41.49%
